{"source": "patent US20130324707A1", "about": "“SYNTHETIC AMPHIPHILES FOR MEMBRANE PROTEIN MANIPULATION” (The Board of Trustees of the Leland Stanford Junior …, priority 2009, published 2013)", "data": [{"experiment": "Critical micelle concentration (CMC) by fluorescent dye uptake", "format": "physicochemical", "description": "The Critical Micelle Concentrations (CMCs) of compounds of the invention can be determined by standard techniques known to those of skill in the art. For example, CMCs of the carbohydrate-based amphiphiles described herein can be determined by monitoring uptake of a fluorescent dye (e.g., a dye such as 1,6-diphenylhexatriene) with increasing detergent concentration, monitored by fluorescence spectroscopy.", "units": {"CMC": "mM", "CMC (%)": "%"}, "values": [{"smiles": "OCC1OC(OCC(COC2OC(CO)C(O)C(O)C2O)(CSC2CCCCC2)CSC2CCCCC2)C(O)C(O)C1O", "note": "(stereo not shown) [GNG-1]", "CMC": 2.1, "CMC (%)": 0.13}, {"smiles": "O=C(NCC(CNC(=O)C1CCCC1)(COC1OC(CO)C(O)C(O)C1O)COC1OC(CO)C(O)C(O)C1O)C1CCCC1", "note": "(stereo not shown) [GNG-4]", "CMC": 72, "CMC (%)": 4.7}, {"smiles": "CCCCCCOCC(COCCCCCC)(COC1OC(CO)C(O)C(O)C1O)COC1OC(CO)C(O)C(O)C1O", "note": "(stereo not shown) [GNG-6]", "CMC": 1.55, "CMC (%)": 0.08}, {"smiles": "CCCCCCCOCC(COCCCCCCC)(COC1OC(CO)C(O)C(O)C1O)COC1OC(CO)C(O)C(O)C1O", "note": "(stereo not shown) [GNG-7]", "CMC": 0.1, "CMC (%)": 0.0092}, {"smiles": "OCC1OC(OCC(COC2CCCCC2)(COC2CCCCC2)COC2OC(CO)C(O)C(O)C2O)C(O)C(O)C1O", "note": "(stereo not shown) [GNG-10]", "CMC": 17, "CMC (%)": 1.07}, {"smiles": "OCC1OC(OCC(COC2OC(CO)C(O)C(O)C2O)(CSCCc2ccccc2)CSCCc2ccccc2)C(O)C(O)C1O", "note": "(stereo not shown) [GNG-11]", "CMC": 0.82, "CMC (%)": 0.06}, {"smiles": "CCCCCCC(CCCCCC)(COC1OC(CO)C(O)C(O)C1O)COC1OC(CO)C(O)C(O)C1O", "note": "(stereo not shown) [GNG-12]", "CMC": 1.02, "CMC (%)": 0.058}, {"smiles": "CCCCCC(CCCCC)(COC1OC(CO)C(O)C(O)C1O)COC1OC(CO)C(O)C(O)C1O", "note": "(stereo not shown) [GNG-13]", "CMC": 9.64, "CMC (%)": 0.373}, {"smiles": "CCCCCOCC(COCCCCC)(COC1OC(CO)C(O)C(O)C1O)COC1OC(CO)C(O)C(O)C1O", "note": "(stereo not shown) [GNG-14]", "CMC": 13.4, "CMC (%)": 0.647}, {"smiles": "O=C(CCCC1CCCCC1)NCC(CNC(=O)CCCC1CCCCC1)(COC1OC(CO)C(OC2OC(CO)C(O)C(O)C2O)C(O)C1O)COC1OC(CO)C(OC2OC(CO)C(O)C(O)C2O)C(O)C1O", "note": "(stereo not shown) [MNG-9]", "CMC": 0.39, "CMC (%)": 0.043}, {"smiles": "O=C(CCCCC1CCCCC1)NCC(CNC(=O)CCCCC1CCCCC1)(COC1OC(CO)C(OC2OC(CO)C(O)C(O)C2O)C(O)C1O)COC1OC(CO)C(OC2OC(CO)C(O)C(O)C2O)C(O)C1O", "note": "(stereo not shown) [MNG-10]", "CMC": 0.053, "CMC (%)": 0.0059}, {"smiles": "CCCCCCCCCC(=O)NCC(CNC(=O)CCCCCCCCC)(COC1OC(CO)C(OC2OC(CO)C(O)C(O)C2O)C(O)C1O)COC1OC(CO)C(OC2OC(CO)C(O)C(O)C2O)C(O)C1O", "note": "(stereo not shown) [MNG-13]", "CMC": 0.043, "CMC (%)": 0.0047}, {"smiles": "CCCCCCCCCCCCCC(=O)NCC(CNC(=O)CCCCCCC)(COC1OC(CO)C(OC2OC(CO)C(O)C(O)C2O)C(O)C1O)COC1OC(CO)C(OC2OC(CO)C(O)C(O)C2O)C(O)C1O", "note": "(stereo not shown) [MNG-15]", "CMC": 0.02, "CMC (%)": 0.0022}, {"smiles": "CCCCCCCCCCCCCCCC(=O)NCC(CNC(=O)CCCCC)(COC1OC(CO)C(OC2OC(CO)C(O)C(O)C2O)C(O)C1O)COC1OC(CO)C(OC2OC(CO)C(O)C(O)C2O)C(O)C1O", "note": "(stereo not shown) [MNG-16]", "CMC": 0.023, "CMC (%)": 0.0026}, {"smiles": "CCCCCCCCCCCCC(=O)NCC(CNC(=O)CCCCCCCC)(COC1OC(CO)C(OC2OC(CO)C(O)C(O)C2O)C(O)C1O)COC1OC(CO)C(OC2OC(CO)C(O)C(O)C2O)C(O)C1O", "note": "(stereo not shown) [MNG-17]", "CMC": 0.02, "CMC (%)": 0.002}, {"smiles": "CCCCCCCCCCCCCCC(=O)NCC(CNC(=O)CCCCCC)(COC1OC(CO)C(OC2OC(CO)C(O)C(O)C2O)C(O)C1O)COC1OC(CO)C(OC2OC(CO)C(O)C(O)C2O)C(O)C1O", "note": "(stereo not shown) [MNG-18]", "CMC": 0.024, "CMC (%)": 0.0027}, {"smiles": "CCCCCCCC(=O)NCC(CNC(=O)CCCCC1CCCCC1)(COC1OC(CO)C(OC2OC(CO)C(O)C(O)C2O)C(O)C1O)COC1OC(CO)C(OC2OC(CO)C(O)C(O)C2O)C(O)C1O", "note": "(stereo not shown) [MNG-19]", "CMC": 0.18, "CMC (%)": 0.0194}]}]}
